Experimental data published in ChEMBL document CHEMBL1121741, “Acidic epinephrine analogues derived from 1H, 3H-2,1,3-benzothiadiazole 2,2-dioxide and from trifluoromethanesulfonanilide. A new synthesis of 1H,3H-2,1,3-benzothiadiazole 2,2-dioxide” (J Med Chem, 1981).

What was measured:
[1] = Acidity determined spectrometrically; format: ADME
[2] = Acidity of compound was determined; format: ADME
[3] = Partition coefficient (logP); format: physicochemical; details: octanol/water

| Structure (SMILES) | pKa [1] | pKa [2] | logP [3] |
| --- | --- | --- | --- |
| CC(C)NCC(O)c1ccc(NS(=O)(=O)C(F)(F)F)cc1 (stereo unspecified) | 3.65 | – | – |
| O=S(=O)(Nc1ccccc1)C(F)(F)F | – | 4.45 | 3.03 |
| Oc1cccc(O)c1 [RESORCINOL] | – | 9.5 | 0.85 |
| CC(C)(C)NCC(O)c1ccc2c(c1)NS(=O)(=O)N2 (stereo unspecified) | 4.7 | – | – |
| CS(=O)(=O)Nc1ccccc1 | – | 8.85 | 0.95 |
| CC(C)NCC(O)c1cccc(NS(=O)(=O)C(F)(F)F)c1 (stereo unspecified) | 3.63 | – | – |
| O=S(=O)(CF)Nc1ccccc1 | – | 7.53 | 1.35 |

The remaining lines, values ahead:

| pKa [1] | pKa [2] | logP [3] | Structure (SMILES) |
| --- | --- | --- | --- |
| 4.68 | – | – | NCC(O)c1ccc2c(c1)NS(=O)(=O)N2 (stereo unspecified) |
| – | 5.26 | 1.12 | O=S1(=O)Nc2ccccc2N1 |
| 4.68 | – | – | CC(C)NCC(O)c1ccc2c(c1)NS(=O)(=O)N2 (stereo unspecified) |
| 4.67 | – | – | CNCC(O)c1ccc2c(c1)NS(=O)(=O)N2 (stereo unspecified) |
